According to US10981932B2, “Macrocyclic indole derivatives” (Bayer Aktiengesellschaft, priority 2016, dated 2021):
Where “and” joins values, the source holds several entries; their conditions need not be identical. Equal values may be shown once. Read-outs that look alike come from different tables or passages of the source.

Experiments:
A2780 = test: Anti-proliferative effect (CellTiter-Glo, 72 h), A2780; format: cell-based; settings: A2780 cells, median, read-out: IC50 antiproliferation assay A2780 [M] (median)
Summary of the method: (§1)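 Cells were treated with compounds for 72 h at 37 °C in a humidified incubator, and viability was measured by CellTiter-Glo luminescence. A parallel day 0 plate, read the same way, gave the time zero baseline.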

SUDHL10 [1] = test: Anti-proliferative effect (CellTiter-Glo, 72 h), SUDHL10; format: cell-based; settings: SUDHL10 cells, antiproliferation, median, read-out: Antiproli SUDHL10 [M] (median)
Summary of the method: as §1

MCL-1 = MCL-1 (Homo sapiens, UniProt Q07820); test: Protein-protein interaction assay MCL-1/Noxa BH3 peptide (MCL-1 assay), TR-FRET; format: binding; settings: MBP-MCL-1 / Noxa BH3-derived peptide, median
Chain of MCL-1 (Q07820 whole entry): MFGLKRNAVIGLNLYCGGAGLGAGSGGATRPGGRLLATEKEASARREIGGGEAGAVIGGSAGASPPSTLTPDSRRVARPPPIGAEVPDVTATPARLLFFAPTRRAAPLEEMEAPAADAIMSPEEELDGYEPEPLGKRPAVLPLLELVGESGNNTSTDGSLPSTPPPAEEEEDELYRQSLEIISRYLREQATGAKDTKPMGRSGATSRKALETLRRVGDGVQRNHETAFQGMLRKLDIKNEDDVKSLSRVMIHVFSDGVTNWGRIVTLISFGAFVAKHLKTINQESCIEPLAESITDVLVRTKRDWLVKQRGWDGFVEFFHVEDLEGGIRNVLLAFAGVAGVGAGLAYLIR
Summary of the method: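 TR-FRET, 665/622 nm emission ratio (excitation 330–350 nm), measured MCL-1/Noxa complex formation. 1 nM MBP-MCL-1, 50 mM Tris/HCl pH 7, 0.1% BGG, 2 mM DTT. Incubation 1 h at 22 °C, then overnight at 4 °C. IC50 by 4-parameter regression, normalized to DMSO (0%) and no-MCL-1 (100%) controls.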

SUDHL5 [2] = test: Induction of caspase-3/7 activity (Caspase-Glo 3/7), SUDHL5; format: cell-based; settings: caspase-3/7 induction, SUDHL5 cells, 3 h treatment, median
Summary of the method: (§2)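 DLBCL cells treated with compounds for 3 h at 37 °C, then caspase-3/7 activity read by Caspase-Glo 3/7 luminescence. Medium-only background subtracted; EC50 fitted with C0 fixed at 1 and top set to the reference compound's maximal induction.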

OPM2 = test: Anti-proliferative effect (CellTiter-Glo, 72 h), OPM2; format: cell-based; settings: OPM2 cells, median, read-out: IC50 antiproliferation assay OPM2 [M] (median)
Procedure: Assessment of the Anti-Proliferative Effect of Compounds in Different Cell Lines
The impact of compounds on the proliferation of different cell lines was assessed using the CellTiter-Glo® Luminescent Cell Viability reagent from Promega (G7573). Of note, SUDHL10 and SUDHL5 (DLBCL), NCI-H929 (Multiple Myeloma), A2780 (ovarian carcinoma) as well as MV-4-11(AML) cells are sensitive to MCL-1 inhibition.
In parallel, cells were plated in a reference (day 0) plate for time zero determination.
Rim wells were excluded. The cells were incubated for 72 h hours in a humidified incubator at 37° C. The day 0 plate was measured by adding 30 μl/well of CTG solution (CellTiter-Glo® Luminescent Cell Viability reagent, Promega G7573) to time zero wells in the reference plate followed by a 10 minutes incubation and luminescence reading at 0.1 ms, using the PHERAstar FS microplate reader (BMG Labtech).
After 72 h incubation, the treated plates were measured in the same way as the day 0 plate mentioned above.

SUDHL10 [3] = test: Induction of caspase-3/7 activity (Caspase-Glo 3/7), SUDHL10; format: cell-based; settings: caspase-3/7 induction, SUDHL10 cells, 3 h treatment, median
Summary of the method: as §2

SUDHL10 [4] = test: Induction of cytotoxicity (CellTiter-Glo, 5 h), SUDHL10
SUDHL5 [5] = test: Induction of cytotoxicity (CellTiter-Glo, 5 h), SUDHL5
SUDHL5 [6] = test: Anti-proliferative effect (CellTiter-Glo, 72 h), SUDHL5; format: cell-based; settings: SUDHL5 cells, antiproliferation, median, read-out: Antiproli SUDHL5 [M] (median)
Summary of the method: as §1

[7] = read-out: Cytotox SUDHL10 [M] (median), SUDHL10 cells, cytotoxicity induction, CellTiter-Glo, 5 h incubation, median
[8] = read-out: Cytotox SUDHL5 [M] (median), SUDHL5 cells, cytotoxicity induction, CellTiter-Glo, 5 h incubation, median
[9] = Homo sapiens, SU-DHL-5, 72 h, 72 h incubation
[10] = Homo sapiens, SU-DHL10, 72 h, 72 h incubation
[11] = Homo sapiens, SU-DHL10, 5 h, read-out: Cytotox SUDHL10 [M] (median), SUDHL10 cells, cytotoxicity induction, CellTiter-Glo, 5 h incubation, median
[12] = Homo sapiens, SU-DHL-5, 5 h, read-out: Cytotox SUDHL5 [M] (median), SUDHL5 cells, cytotoxicity induction, CellTiter-Glo, 5 h incubation, median

SMILES	IC50 (A2780; Homo sapiens, A2780, 72 h) [M]	IC50 (MCL-1) [µM]	EC50 (SUDHL5 [2]) [µM]	EC50 (SUDHL10 [3]) [µM]	IC50 (A2780) [M]	EC50 (SUDHL5 [2]; Homo sapiens, SU-DHL-5, 3 h) [µM]	EC50 (SUDHL10 [3]; Homo sapiens, SU-DHL10, 3 h) [µM]	IC50 (SUDHL5 [6]; [9]) [M]	IC50 (SUDHL10 [4]; [7]) [M]	IC50 (OPM2) [M]	IC50 (SUDHL5 [5]; [8]) [M]	other results
COC1(c2ccc(OCc3nn(C)c4c3-c3cccc5c(CCCOc6cccc7ccccc67)c(C(=O)O)n(c35)CCCCOC4)cc2)CCOCC1 (single isomer, unassigned) [Example 1-66, 3-{[4-(4-methoxytetrahydro-2H-pyran-4-yl)phenoxy]methyl}-1-methyl-7-[3-(naphthalen-1-yloxy)propyl]-1,10,11,12,13,15-hexahydropyrazolo[4′,3′:9,10][1,6]oxazacycloundecino[8,7,6-hi]indole-8-carboxylic Acid]	1.22e-05	0.00943	6.15	8.47								IC50 (SUDHL10 [1]; 72 h incubation): 9.23e-06 M and 1.76e-05 M; IC50 (OPM2; Homo sapiens, OPM-2, 72 h): 1.18e-05 M
CC(C)OCc1nn(C)c2c1-c1cccc3c(CCCOc4cccc5ccccc45)c(C(=O)O)n(c13)C/C=C\COC2 (racemic) [Example 1-68, (rac)-(11Z)-1-methyl-7-[3-(naphthalen-1-yloxy)propyl]-3-[(propan-2-yloxy)methyl]-1,10,13,15-tetrahydropyrazolo[4′,3′:9,10][1,6]oxazacycloundecino[8,7,6-hi]indole-8-carboxylic Acid]	2.87e-05	0.0269				> 33	> 33					IC50 (OPM2; Homo sapiens, OPM-2, 72 h): > 3.3e-05 M
Cn1nc(CN2CCCC2=O)c2c1COCCCCn1c(C(=O)O)c(CCCOc3cccc4ccccc34)c3cccc-2c31 (single isomer, unassigned; enantiomer 1) [Example 330, 1-methyl-7-[3-(naphthalen-1-yloxy)propyl]-3-[(2-oxopyrrolidin-1-yl)methyl]-1,10,11,12,13,15-hexahydropyrazolo[4′,3′:9,10][1,6]oxazacycloundecino[8,7,6-hi]indole-8-carboxylic Acid (Enantiomer 1)]		0.153	> 33	> 33	> 3.3e-05							IC50 (SUDHL10 [1]; 72 h): 2.49e-05 M; IC50 (SUDHL10 [4]; read-out: Cytotox SUDHL10 [M] (median), SUDHL10 cells, cytotoxicity induction, CellTiter-Glo, 5 h, median): > 3.3e-05 M; IC50 (SUDHL5 [6]; 72 h): > 3.3e-05 M; IC50 (SUDHL5 [5]; read-out: Cytotox SUDHL5 [M] (median), SUDHL5 cells, cytotoxicity induction, CellTiter-Glo, 5 h, median): > 3.3e-05 M
CN1CCN(Cc2c3c(nn2C)COCCCCn2c(C(=O)O)c(CCCOc4cccc5ccccc45)c4cccc-3c42)CC1 (racemic) [Example 359, (rac)-2-methyl-3-[(4-methylpiperazin-1-yl)methyl]-7-[3-(naphthalen-1-yloxy)propyl]-2,10,11,12,13,15-hexahydropyrazolo[4′,3′:9,10][1,6]oxazacycloundecino[8,7,6-hi]indole-8-carboxylic Acid]	> 3.3e-05	0.075				> 33	> 33					IC50 (SUDHL10 [1]; Homo sapiens, SU-DHL10, 72 h, 72 h): > 3.3e-05 M; IC50 (SUDHL10 [4]; Homo sapiens, SU-DHL10, 5 h, read-out: Cytotox SUDHL10 [M] (median), SUDHL10 cells, cytotoxicity induction, CellTiter-Glo, 5 h, median): > 3.3e-05 M; IC50 (SUDHL5 [6]; Homo sapiens, SU-DHL-5, 72 h, 72 h): > 3.3e-05 M; IC50 (SUDHL5 [5]; Homo sapiens, SU-DHL-5, 5 h, read-out: Cytotox SUDHL5 [M] (median), SUDHL5 cells, cytotoxicity induction, CellTiter-Glo, 5 h, median): > 3.3e-05 M
Cn1nc2c(c1C(F)(F)F)-c1cccc3c(CCCOc4cccc5ccccc45)c(C(=O)O)n(c13)CCCCOC2 (racemic) [Example 186, (rac)-2-methyl-7-[3-(naphthalen-1-yloxy)propyl]-3-(trifluoromethyl)-2,10,11,12,13,15-hexahydropyrazolo[4′3′:9,10][1,6]oxazacycloundecino[8,7,6,6-hi]indole-8-carboxylic Acid]	> 3.3e-05	0.0157			2.28e-05	9.85	18.6	8.69e-06				IC50 (SUDHL10 [1]; [10]): 1.4e-05 M; IC50 (SUDHL10 [4]; [11]): 2.61e-05 M; IC50 (SUDHL5 [5]; [12]): 1.14e-05 M
Cc1nn(CC(F)(F)F)c2c1-c1cccc3c(CCCOc4cccc5ccccc45)c(C(=O)O)n(c13)C/C=C\COC2 (racemic) [Example 098, (rac)-(11Z)-3-methyl-7-[3-(naphthalen-1-yloxy)propyl]-12-(2,2,2-trifluoroethyl)-1,10,13,15-tetrahydropyrazolo[4′,3′:9,10][1,6]oxazacycloundecino[8,7,6-hi]indole-8-carboxylic Acid]	2.09e-05	0.0827				> 33	> 33	2.74e-05				IC50 (SUDHL10 [1]; [10]): 1.15e-05 M; IC50 (SUDHL10 [4]; [11]): > 3.3e-05 M; IC50 (SUDHL5 [5]; [12]): 2.94e-05 M

Further lines, with some results ahead:

IC50 (A2780; Homo sapiens, A2780, 72 h) [M]	IC50 (MCL-1) [µM]	EC50 (SUDHL5 [2]) [µM]	EC50 (SUDHL10 [3]) [µM]	IC50 (A2780) [M]	EC50 (SUDHL5 [2]; Homo sapiens, SU-DHL-5, 3 h) [µM]	EC50 (SUDHL10 [3]; Homo sapiens, SU-DHL10, 3 h) [µM]	IC50 (SUDHL5 [6]; [9]) [M]	SMILES	IC50 (SUDHL10 [4]; [7]) [M]	IC50 (OPM2) [M]	IC50 (SUDHL5 [5]; [8]) [M]	other results
	0.00163	> 33	> 33	2.48e-05				CC(=O)N1CCN(c2ccc(OCc3nn(C)c4c3-c3cccc5c(CCCOc6cccc7ccccc67)c(C(=O)O)n(c35)CCCCOC4)cc2)CC1 (single isomer, unassigned; enantiomer 2) [Example 1-26, 3-{[4-(4-acetylpiperazin-1-yl)phenoxy]methyl}-1-methyl-7-[3-(naphthalen-1-yloxy)propyl]-1,10,11,12,13,15-hexahydropyrazolo[4′,3′:9,10][1,6]oxazacycloundecino[8,7,6-hi]indole-8-carboxylic Acid (Enantiomer 2)]	> 3.3e-05	2e-06	> 3.3e-05	
3.12e-05	0.0709	> 33	> 33					COCC(=O)N1CCN(c2ccc(OCc3nn(C)c4c3-c3cccc5c(CCCOc6cccc7ccccc67)c(C(=O)O)n(c35)CCCCOC4)cc2)CC1 (single isomer, unassigned; enantiomer 1) [Example 1-28, 3-({4-[4-(methoxyacetyl)piperazin-1-yl]phenoxy}methyl)-1-methyl-7-[3-(naphthalen-1-yloxy)propyl]-1,10,11,12,13,15-hexahydropyrazolo[4′,3′:9,10][1,6]oxazacycloundecino[8,7,6-hi]indole-8-carboxylic Acid (Enantiomer 1)]	> 3.3e-05	1.98e-05	> 3.3e-05	
1.7e-05	0.131	1.61	3.89				2.86e-05	CC(=O)N1CCN(c2ccc(OCc3nn(C)c4c3-c3cccc5c(CCCOc6cccc7ccccc67)c(C(=O)O)n(c35)CCCCOC4)cc2)CC1 (single isomer, unassigned; enantiomer 1) [Example 1-25, 3-{[4-(4-acetylpiperazin-1-yl)phenoxy]methyl}-1-methyl-7-[3-(naphthalen-1-yloxy)propyl]-1,10,11,12,13,15-hexahydropyrazolo[4′,3′:9,10][1,6]oxazacycloundecino[8,7,6-hi]indole-8-carboxylic Acid (Enantiomer 1)]	4.02e-06	1.08e-05	2.68e-06	
